Data from publication PMC11249953, “c-KIT inhibitors reduce pathology and improve behavior in the Tg(SwDI) model of Alzheimer’s disease” (Life Science Alliance, 2024).

What was measured:
FYN = target: T1, FYN (Homo sapiens, UniProt P06241); assay: KINOMEscan competition binding, FYN; conditions: 10 µM compound; for remaining binding at 10 µM: lower = stronger binding, read-out: FYN %Ctrl @ 10000nM
T1 construct: DNA label for qPCR read-out (T7 phage fusion or DNA tag); purchased Eurofins DiscoverX Corporation; host or cells: T7 phage in E. coli (BL21-derived) or HEK-293
Procedure: The KINOMEscan screening platform (Eurofins DiscoverX Corporation) was performed using active site-directed competition binding assay to quantitatively measure interactions between BK40143 and BK40197 and more than 450 human kinases and disease relevant mutant variants. […] Screening “hits” are identified by measuring the amount of kinase captured in test (BK40143 and BK40197) versus control samples by using a quantitative and ultra-sensitive qRT-PCR method that detects the associated DNA label. BK40143 and BK40197 were screened at 10 µM concentration, and results for primary screen binding interactions were reported as “% Ctrl” (POC), where lower numbers indicate stronger hits and calculated as follows: [test compound signal−positive control signal/negative control signal−positive control signal]×100
negative control = DMSO (100% Ctrl)
positive control = control compound (0% Ctrl)
Based on screening data from of profiled compounds, a proportional relationship between primary screening results and corresponding compound/target affinities can be described as binding constants (Kd values) for the indicated ranges of POC values with tighter binding (higher affinity) interactions associated with lower POC values and weaker binding (lower affinity) associated with higher POC values. Briefly, kinase-tagged T7 phage strains were grown in parallel in 24-well blocks in an E. coli host derived from the BL21 strain. E. coli were grown to log-phase and infected with T7 phage from a frozen stock (multiplicity of infection = 0.4) and incubated with shaking at 32°C until lysis (90–150 min). The lysates were centrifuged (6,000g) and filtered (0.2 μm) to remove cell debris. The remaining kinases were produced in HEK-293 cells and subsequently tagged with DNA for qRT-PCR detection. Streptavidin-coated magnetic beads were treated with biotinylated small molecule ligands for 30 min at RT to generate affinity resins for kinase assays. The liganded beads were blocked with excess biotin and washed with blocking buffer (1% BSA, 0.05% Tween 20, 1 mM DTT; SeaBlock [Pierce]) to remove unbound ligand and to reduce non-specific phage binding. Binding reactions were assembled by combining kinases, liganded affinity beads, and test compounds in 1x binding buffer (20% 0.17x PBS, 0.05% Tween 20, 6 mM DTT; SeaBlock). Test compounds were prepared as 100x stocks in 100% DMSO and directly diluted into the assay. All reactions were performed in polypropylene 384-well plates in a final volume of 0.02 ml. The assay plates were incubated at RT with shaking for 1 h and the affinity beads were washed with wash buffer (1x PBS, 0.05% Tween 20). […] The kinase concentration in the eluates was measured by qRT-PCR.

TgAPP mice = assay: Novel object recognition, TgAPP mice; format: in vivo, mouse; conditions: BK40143 5 mg/kg, BK40197 45 mg/kg IP, 6 wk, vs DMSO
Procedure: Novel object recognition was carried out using a 50 × 50 cm arena with clear walls covered by brown construction paper. Mice were habituated to the room for 30 min each day, before being allowed to freely explore the arena for 5 min two times, for 3 d. On the 4th d, two identical objects were placed in the arena in opposite adjacent corners, 10 cm from the corner of the arena. Mice were placed along the wall opposite from the objects and allowed to freely explore for 10 min. Approach behavior (extending nose toward the object) toward both objects was recorded manually using handheld stop watches and compared with ensure there was no preference for either neutral object. For the probe trial, one object was removed and replaced with a novel object, and mice were again allowed to freely explore for 10 min, with approach time towards the novel and familiar objects recorded. Trials in which the mice explored for less than 1 s were excluded. Discrimination index was calculated by dividing time spent exploring the novel object by total time exploring both objects and was compared for treated versus control animals.

[1] = system: microglial PAR2-tryptase interactions in TgAPP mice; assay: Proximity ligation assay PAR2-tryptase; format: in vivo, mouse; conditions: vs DMSO
Procedure: Slides containing two consecutive brain slices were blocked in Duolink blocking solution for 1 h in a slide chamber containing water at 37°C. Blocking solution was then removed and PAR2 (1:250) and tryptase (1:250) primary antibodies were added at the concentrations specified above and incubated at 4°C overnight. The next day, primaries were removed and slides were washed twice for 5 min in wash buffer before addition of plus and minus probes for incubation at 37°C in a humid chamber for 1 h. Slides were then washed again twice for 5 min in wash buffer before addition of ligation buffer for incubation at 37°C in a humid chamber for 30 min. Next, slides were washed twice for 5 min in wash buffer, and polymerase was added for incubation at 37°C in a humid chamber for 100 min. Finally, slides were washed twice for 10 min in wash buffer and mounted using DAPI mounting medium and a glass coverslip. Slides were imaged on a Leica Dmi8 light microscope.

T1 sequence (P06241 whole entry, the tested form may be a part): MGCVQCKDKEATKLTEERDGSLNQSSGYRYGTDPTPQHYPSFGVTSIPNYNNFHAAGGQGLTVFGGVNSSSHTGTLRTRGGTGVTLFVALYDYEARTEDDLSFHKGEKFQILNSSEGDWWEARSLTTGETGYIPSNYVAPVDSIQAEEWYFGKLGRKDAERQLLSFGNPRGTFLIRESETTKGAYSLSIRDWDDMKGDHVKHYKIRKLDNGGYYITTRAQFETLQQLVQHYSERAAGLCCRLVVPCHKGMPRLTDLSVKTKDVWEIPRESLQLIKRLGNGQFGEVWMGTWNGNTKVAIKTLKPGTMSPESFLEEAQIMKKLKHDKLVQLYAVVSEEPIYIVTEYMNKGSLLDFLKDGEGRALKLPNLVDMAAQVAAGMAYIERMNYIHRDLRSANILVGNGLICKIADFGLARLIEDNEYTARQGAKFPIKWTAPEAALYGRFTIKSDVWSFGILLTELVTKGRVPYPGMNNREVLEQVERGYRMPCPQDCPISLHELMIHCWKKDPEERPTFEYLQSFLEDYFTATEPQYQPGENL

Compound | inhibition at 10 µM (FYN) [%] | remaining binding at 10 µM (FYN) [%] | novel object recognition: time exploring the novel object (TgAPP mice) | mast cell tryptase / microglial PAR2-tryptase interactions (proximity ligation) [1]
Cc1cccc(-c2cc3nccc(N4CCOCC4)c3s2)c1 [BK40197] | 44 | 56 | spent significantly greater amounts of time exploring the novel object | reduced mast cell mediators such as tryptase
Cc1cccc(-c2cc3nccc(Nc4ccccc4)c3s2)c1 [BK40143] | 90 | 10 | spent significantly greater amounts of time exploring the novel object | reduced mast cell mediators such as tryptase
